In brackets after ≈: the same amount, converted by molar mass. ± gives the standard deviation of the averaged measurements.
Columns and labels:
Assay in all cases: minimum inhibitory concentration (MIC)
Settings in all cases: incubation time: 18 h
[1] = tested on: Burkholderia contaminans ISS isolate s47
[2] = tested on: Burkholderia cepacia ISS isolate s25
[3] = tested on: Burkholderia cepacia ISS isolate s18
[4] = tested on: Burkholderia cepacia ATCC25416
[5] = tested on: Burkholderia cepacia ISS isolate s23
[6] = tested on: Burkholderia cepacia ISS isolate s39
[7] = tested on: Burkholderia cepacia ISS isolate s37
[8] = tested on: Burkholderia cepacia ISS isolate s24
[9] = tested on: Burkholderia cepacia ISS isolate s9
[10] = tested on: Burkholderia contaminans J2956
[11] = tested on: Burkholderia contaminans ISS isolate s52
[12] = tested on: Burkholderia cepacia ISS isolate s22
[13] = tested on: Burkholderia cepacia ISS isolate s20
[14] = tested on: Burkholderia cepacia ISS isolate s33
[15] = tested on: Burkholderia cepacia ISS isolate s57
[16] = tested on: Burkholderia cepacia ISS isolate s31
[17] = tested on: Burkholderia cepacia ISS isolate s16
[18] = tested on: Burkholderia contaminans ISS isolate s56
[19] = tested on: Burkholderia cepacia ISS isolate s12
[20] = tested on: Burkholderia cepacia ISS isolate s36
[21] = tested on: Burkholderia cepacia ISS isolate s41
[22] = tested on: Burkholderia cepacia ISS isolate s28
[23] = tested on: Burkholderia contaminans ISS isolate s54
[24] = tested on: Burkholderia cepacia ISS isolate s15
[25] = tested on: Burkholderia contaminans ISS isolate s53
[26] = tested on: Burkholderia cepacia ISS isolate s35

| Structure (SMILES) | minimum inhibitory concentration [1] | minimum inhibitory concentration [2] | minimum inhibitory concentration [3] | minimum inhibitory concentration [4] | minimum inhibitory concentration [5] | minimum inhibitory concentration [6] | minimum inhibitory concentration [7] | minimum inhibitory concentration [8] | minimum inhibitory concentration [9] | minimum inhibitory concentration [10] | minimum inhibitory concentration [11] | minimum inhibitory concentration [12] | minimum inhibitory concentration [13] | minimum inhibitory concentration [14] | minimum inhibitory concentration [15] | minimum inhibitory concentration [16] | minimum inhibitory concentration [17] | minimum inhibitory concentration [18] | minimum inhibitory concentration [19] | minimum inhibitory concentration [20] | minimum inhibitory concentration [21] | minimum inhibitory concentration [22] | minimum inhibitory concentration [23] | minimum inhibitory concentration [24] | minimum inhibitory concentration [25] | minimum inhibitory concentration [26] |
| --- | --- | --- | --- | --- | --- | --- | --- | --- | --- | --- | --- | --- | --- | --- | --- | --- | --- | --- | --- | --- | --- | --- | --- | --- | --- | --- |
| CN(C)c1ccc(O)c2c1C[C@H]1C[C@H]3[C@H](N(C)C)C(O)=C(C(N)=O)C(=O)[C@@]3(O)C(O)=C1C2=O [minocycline] | 3.17 ± 3.5 mg/L (≈ 6.94 µM) | 8 ± 6.1 mg/L (≈ 17.5 µM) | 6.35 ± 7 mg/L (≈ 13.9 µM) | 1.59 ± 0.58 mg/L (≈ 3.47 µM) | 8 ± 6.1 mg/L (≈ 17.5 µM) | 6.35 ± 6.9 mg/L (≈ 13.9 µM) | 6.35 ± 2.3 mg/L (≈ 13.9 µM) | 12.7 ± 14 mg/L (≈ 27.8 µM) | 6.35 ± 6.9 mg/L (≈ 13.9 µM) | 2 mg/L (≈ 4.37 µM) | 2 mg/L (≈ 4.37 µM) | 6.35 ± 2.3 mg/L (≈ 13.9 µM) | 6.35 ± 7 mg/L (≈ 13.9 µM) | 12.7 ± 4.6 mg/L (≈ 27.8 µM) | 2 mg/L (≈ 4.37 µM) | 4 mg/L (≈ 8.74 µM) | 5.04 ± 3.5 mg/L (≈ 11 µM) | 2.52 ± 1.1 mg/L (≈ 5.51 µM) | 3.17 ± 1.1 mg/L (≈ 6.94 µM) | 6.35 ± 6.9 mg/L (≈ 13.9 µM) | 8 ± 6.1 mg/L (≈ 17.5 µM) | 10.1 ± 15 mg/L (≈ 22 µM) | 2 mg/L (≈ 4.37 µM) | 12.7 ± 4.6 mg/L (≈ 27.8 µM) | 2 mg/L (≈ 4.37 µM) | 8 mg/L (≈ 17.5 µM) |
| C[C@H]1COc2c(N3CCN(C)CC3)c(F)cc3c(=O)c(C(=O)O)cn1c23 [levofloxacin] | 0.5 mg/L (≈ 1.38 µM) | 6.35 ± 2.3 mg/L (≈ 17.6 µM) | – | 0.63 ± 0.43 mg/L (≈ 1.74 µM) | 8 ± 6.1 mg/L (≈ 22.1 µM) | – | 1.26 ± 0.58 mg/L (≈ 3.49 µM) | 10.1 ± 15 mg/L (≈ 27.9 µM) | 6.35 ± 2.3 mg/L (≈ 17.6 µM) | 0.5 mg/L (≈ 1.38 µM) | 0.5 mg/L (≈ 1.38 µM) | 8 ± 6.1 mg/L (≈ 22.1 µM) | – | 1 mg/L (≈ 2.77 µM) | 0.63 ± 0.29 mg/L (≈ 1.74 µM) | 8 ± 6.1 mg/L (≈ 22.1 µM) | – | 0.5 mg/L (≈ 1.38 µM) | – | 1.26 ± 0.87 mg/L (≈ 3.49 µM) | – | 10.1 ± 15 mg/L (≈ 27.9 µM) | 0.315 ± 0.14 mg/L (≈ 0.872 µM) | 1 mg/L (≈ 2.77 µM) | 0.5 mg/L (≈ 1.38 µM) | 1.59 ± 1.7 mg/L (≈ 4.39 µM) |
| CO/N=C(\C(=O)N[C@@H]1C(=O)N2C(C(=O)O)=C(COC(C)=O)CS[C@H]12)c1csc(N)n1 [cefotaxime] | > 64 mg/L | 12.7 ± 14 mg/L (≈ 27.9 µM) | 20.2 ± 9.2 mg/L (≈ 44.3 µM) | 20.2 ± 9.2 mg/L (≈ 44.3 µM) | 20.2 ± 9.2 mg/L (≈ 44.3 µM) | 12.7 ± 14 mg/L (≈ 27.9 µM) | 20.2 ± 9.2 mg/L (≈ 44.3 µM) | 20.2 ± 9.2 mg/L (≈ 44.3 µM) | 20.2 ± 9.2 mg/L (≈ 44.3 µM) | > 64 mg/L | > 64 mg/L | 20.2 ± 9.2 mg/L (≈ 44.3 µM) | 20.2 ± 9.2 mg/L (≈ 44.3 µM) | 20.2 ± 9.2 mg/L (≈ 44.3 µM) | 11.3 ± 5.7 mg/L (≈ 24.8 µM) | 25.4 ± 9.2 mg/L (≈ 55.8 µM) | 20.2 ± 9.2 mg/L (≈ 44.3 µM) | > 64 mg/L | 16 ± 12 mg/L (≈ 35.1 µM) | 16 ± 12 mg/L (≈ 35.1 µM) | 12.7 ± 14 mg/L (≈ 27.9 µM) | 20.2 ± 9.2 mg/L (≈ 44.3 µM) | > 64 mg/L | 16 mg/L (≈ 35.1 µM) | > 64 mg/L | 16 ± 12 mg/L (≈ 35.1 µM) |
| COc1cc(Cc2cnc(N)nc2N)cc(OC)c1OC.Cc1cc(NS(=O)(=O)c2ccc(N)cc2)no1 [trimethoprim/sulfamethoxazole] | 8 mg/L | 22.6 ± 11 mg/L | 12.7 ± 14 mg/L | 20.2 ± 9.2 mg/L | 25.4 ± 9.2 mg/L | 20.2 ± 9.2 mg/L | 32 mg/L | – | – | 8 mg/L | 6.35 ± 2.3 mg/L | 20.2 ± 9.2 mg/L | 25.4 ± 9.2 mg/L | 25.4 ± 9.2 mg/L | 16 mg/L | 20.2 ± 9.2 mg/L | 20.2 ± 14 mg/L | 10.1 ± 4.6 mg/L | 12.7 ± 4.6 mg/L | 32 mg/L | 25.4 ± 9.2 mg/L | 25.4 ± 9.2 mg/L | 6.35 ± 2.3 mg/L | 25.4 ± 9.2 mg/L | 8 mg/L | 32 mg/L |
| CC(C)(O/N=C(\C(=O)N[C@@H]1C(=O)N2C(C(=O)[O-])=C(C[n+]3ccccc3)CS[C@H]12)c1csc(N)n1)C(=O)O [ceftazidime] | 8 mg/L (≈ 14.6 µM) | 4 mg/L (≈ 7.32 µM) | 4 mg/L (≈ 7.32 µM) | 12.7 ± 4.6 mg/L (≈ 23.2 µM) | 4 mg/L (≈ 7.32 µM) | 3.17 ± 1.1 mg/L (≈ 5.81 µM) | 2 ± 2 mg/L (≈ 3.66 µM) | 4 mg/L (≈ 7.32 µM) | 4 mg/L (≈ 7.32 µM) | 8 mg/L (≈ 14.6 µM) | 8 mg/L (≈ 14.6 µM) | 4 mg/L (≈ 7.32 µM) | 4 mg/L (≈ 7.32 µM) | 4 mg/L (≈ 7.32 µM) | 3.17 ± 1.1 mg/L (≈ 5.81 µM) | 4 mg/L (≈ 7.32 µM) | 4 mg/L (≈ 7.32 µM) | 8 mg/L (≈ 14.6 µM) | 4 mg/L (≈ 7.32 µM) | 4 mg/L (≈ 7.32 µM) | 3.17 ± 1.1 mg/L (≈ 5.81 µM) | 4 mg/L (≈ 7.32 µM) | 8 mg/L (≈ 14.6 µM) | 4.58 ± 1.1 mg/L (≈ 8.38 µM) | 8 mg/L (≈ 14.6 µM) | 3.17 ± 1.1 mg/L (≈ 5.81 µM) |
| O=C(N[C@H](CO)[C@H](O)c1ccc([N+](=O)[O-])cc1)C(Cl)Cl [chloramphenicol] | 5.04 ± 2.3 mg/L (≈ 15.6 µM) | 5.85 ± 4.9 mg/L (≈ 18.1 µM) | 9.28 ± 2.6 mg/L (≈ 28.7 µM) | 6.35 ± 2.3 mg/L (≈ 19.7 µM) | – | 4 ± 3.1 mg/L (≈ 12.4 µM) | 5.04 ± 3.5 mg/L (≈ 15.6 µM) | 9.28 ± 11 mg/L (≈ 28.7 µM) | 4.64 ± 5.6 mg/L (≈ 14.4 µM) | 8 mg/L (≈ 24.8 µM) | 8 mg/L (≈ 24.8 µM) | 7.37 ± 12 mg/L (≈ 22.8 µM) | 11.7 ± 9.8 mg/L (≈ 36.2 µM) | 5.04 ± 2.3 mg/L (≈ 15.6 µM) | 8 mg/L (≈ 24.8 µM) | 5.85 ± 4.9 mg/L (≈ 18.1 µM) | 9.28 ± 2.6 mg/L (≈ 28.7 µM) | 6.35 ± 2.3 mg/L (≈ 19.7 µM) | 7.37 ± 4.2 mg/L (≈ 22.8 µM) | 8 ± 16 mg/L (≈ 24.8 µM) | 4 ± 3.1 mg/L (≈ 12.4 µM) | 5.85 ± 4.9 mg/L (≈ 18.1 µM) | 8 mg/L (≈ 24.8 µM) | 5.04 ± 2.3 mg/L (≈ 15.6 µM) | 8 mg/L (≈ 24.8 µM) | 5.04 ± 2.3 mg/L (≈ 15.6 µM) |
| C[C@@H](O)[C@H]1C(=O)N2C(C(=O)O)=C(S[C@@H]3CN[C@H](C(=O)N(C)C)C3)[C@H](C)[C@H]12 [meropenem] | 4 mg/L (≈ 10.4 µM) | 20.2 ± 9.2 mg/L (≈ 52.6 µM) | 12.7 ± 14 mg/L (≈ 33.1 µM) | 16 ± 12 mg/L (≈ 41.7 µM) | 20.2 ± 14 mg/L (≈ 52.6 µM) | – | 32 mg/L (≈ 83.4 µM) | 20.2 ± 14 mg/L (≈ 52.6 µM) | 32 mg/L (≈ 83.4 µM) | 4 mg/L (≈ 10.4 µM) | 4 mg/L (≈ 10.4 µM) | 2 ± 1.5 mg/L (≈ 5.22 µM) | 12.7 ± 14 mg/L (≈ 33.1 µM) | – | 5.04 ± 2.3 mg/L (≈ 13.1 µM) | 25.4 ± 9.2 mg/L (≈ 66.2 µM) | 10.1 ± 6.9 mg/L (≈ 26.3 µM) | 5.04 ± 2.3 mg/L (≈ 13.1 µM) | 20.2 ± 9.2 mg/L (≈ 52.6 µM) | – | – | 25.4 ± 9.2 mg/L (≈ 66.2 µM) | 4 mg/L (≈ 10.4 µM) | – | 4 mg/L (≈ 10.4 µM) | 32 mg/L (≈ 83.4 µM) |

Reference: the supplement of paper PMC7029842
